Experimental data taken from paper PMC11864979, “First-in-class ultralong-target-residence-time p38α inhibitors as a mitosis-targeted therapy for colorectal cancer” (Nature Cancer, 2025).
Where two headings read alike, the source gives them in different places.

Experiments:
Test in all cases: selectivity profiling in a panel of 340 wild-type kinases (Reaction Biology Europe)
Assay type in all cases: binding
340 wild-type kinases [1] = biological target: T1, 340 wild-type kinases (Homo sapiens, UniProt P36507)
T1 construct: purchased Reaction Biology Europe

340 wild-type kinases [2] = biological target: T2, 340 wild-type kinases (Homo sapiens, UniProt Q5TCY1)
T2 construct: purchased Reaction Biology Europe

340 wild-type kinases [3] = biological target: T3, 340 wild-type kinases (Homo sapiens, UniProt Q6P5Z2)
T3 construct: purchased Reaction Biology Europe

340 wild-type kinases [4] = biological target: T4, 340 wild-type kinases (Homo sapiens, UniProt Q13555)
T4 construct: purchased Reaction Biology Europe

340 wild-type kinases [5] = biological target: T5, 340 wild-type kinases (Homo sapiens, UniProt P57059)
T5 construct: purchased Reaction Biology Europe

340 wild-type kinases [6] = biological target: T6, 340 wild-type kinases (Homo sapiens, UniProt P11309)
T6 construct: purchased Reaction Biology Europe

340 wild-type kinases [7] = biological target: T7, 340 wild-type kinases (Homo sapiens, UniProt Q13882)
T7 construct: purchased Reaction Biology Europe

340 wild-type kinases [8] = biological target: T8, 340 wild-type kinases (Homo sapiens, UniProt P78368)
T8 construct: purchased Reaction Biology Europe

340 wild-type kinases [9] = biological target: T9, 340 wild-type kinases (Homo sapiens, UniProt O00141)
T9 construct: purchased Reaction Biology Europe
T9 sequence (O00141 1-431): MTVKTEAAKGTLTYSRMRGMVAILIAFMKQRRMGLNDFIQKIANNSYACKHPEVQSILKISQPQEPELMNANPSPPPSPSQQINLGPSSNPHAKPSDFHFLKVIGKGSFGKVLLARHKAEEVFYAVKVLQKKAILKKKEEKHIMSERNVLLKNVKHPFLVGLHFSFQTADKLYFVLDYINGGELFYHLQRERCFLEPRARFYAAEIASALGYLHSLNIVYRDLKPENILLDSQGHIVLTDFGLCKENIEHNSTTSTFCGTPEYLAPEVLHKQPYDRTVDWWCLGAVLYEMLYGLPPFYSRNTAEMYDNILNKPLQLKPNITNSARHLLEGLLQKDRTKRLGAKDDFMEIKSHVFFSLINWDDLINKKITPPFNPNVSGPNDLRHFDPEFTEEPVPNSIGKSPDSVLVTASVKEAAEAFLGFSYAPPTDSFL

340 wild-type kinases [10] = biological target: T10, 340 wild-type kinases (Homo sapiens, UniProt Q32MK0)
T10 construct: purchased Reaction Biology Europe
T10 sequence (Q32MK0 1-819): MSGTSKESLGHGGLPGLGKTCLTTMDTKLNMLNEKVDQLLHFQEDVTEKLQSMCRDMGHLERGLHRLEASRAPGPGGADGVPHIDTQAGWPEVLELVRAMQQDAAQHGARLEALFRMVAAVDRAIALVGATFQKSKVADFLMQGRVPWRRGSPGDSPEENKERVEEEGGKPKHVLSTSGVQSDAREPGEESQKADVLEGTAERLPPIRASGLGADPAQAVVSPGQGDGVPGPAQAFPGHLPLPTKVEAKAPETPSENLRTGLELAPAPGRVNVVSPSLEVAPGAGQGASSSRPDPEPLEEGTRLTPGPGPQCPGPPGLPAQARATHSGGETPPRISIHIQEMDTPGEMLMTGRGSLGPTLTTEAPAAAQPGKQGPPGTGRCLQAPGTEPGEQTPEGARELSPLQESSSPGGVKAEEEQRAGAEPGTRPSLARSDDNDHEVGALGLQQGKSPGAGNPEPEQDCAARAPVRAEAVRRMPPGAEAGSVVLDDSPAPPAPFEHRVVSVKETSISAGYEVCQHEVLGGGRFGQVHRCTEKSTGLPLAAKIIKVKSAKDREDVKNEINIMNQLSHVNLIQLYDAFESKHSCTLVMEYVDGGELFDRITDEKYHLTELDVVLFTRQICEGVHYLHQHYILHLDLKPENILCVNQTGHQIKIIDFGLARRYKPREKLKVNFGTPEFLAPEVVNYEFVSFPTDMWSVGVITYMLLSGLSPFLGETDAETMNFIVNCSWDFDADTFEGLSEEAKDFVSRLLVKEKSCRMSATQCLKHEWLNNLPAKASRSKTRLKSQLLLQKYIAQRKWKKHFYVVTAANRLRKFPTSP

340 wild-type kinases [11] = biological target: T11, 340 wild-type kinases (Homo sapiens, UniProt Q13233)
T11 construct: purchased Reaction Biology Europe

T4 sequence (Q13555 whole entry): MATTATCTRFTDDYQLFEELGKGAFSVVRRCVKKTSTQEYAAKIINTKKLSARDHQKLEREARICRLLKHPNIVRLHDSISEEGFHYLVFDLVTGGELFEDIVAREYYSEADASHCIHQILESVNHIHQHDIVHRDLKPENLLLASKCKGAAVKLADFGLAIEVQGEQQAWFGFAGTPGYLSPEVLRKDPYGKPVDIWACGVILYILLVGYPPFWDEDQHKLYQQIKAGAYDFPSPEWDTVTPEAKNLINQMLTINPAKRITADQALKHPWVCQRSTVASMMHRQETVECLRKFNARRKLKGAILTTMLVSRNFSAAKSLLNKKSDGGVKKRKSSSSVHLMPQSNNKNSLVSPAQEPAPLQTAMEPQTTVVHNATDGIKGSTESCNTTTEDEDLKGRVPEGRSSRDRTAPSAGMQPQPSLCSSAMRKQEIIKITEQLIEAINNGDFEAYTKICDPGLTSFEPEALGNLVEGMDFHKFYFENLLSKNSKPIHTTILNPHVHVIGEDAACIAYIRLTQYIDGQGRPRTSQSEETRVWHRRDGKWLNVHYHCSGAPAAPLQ
T8 sequence (P78368 whole entry): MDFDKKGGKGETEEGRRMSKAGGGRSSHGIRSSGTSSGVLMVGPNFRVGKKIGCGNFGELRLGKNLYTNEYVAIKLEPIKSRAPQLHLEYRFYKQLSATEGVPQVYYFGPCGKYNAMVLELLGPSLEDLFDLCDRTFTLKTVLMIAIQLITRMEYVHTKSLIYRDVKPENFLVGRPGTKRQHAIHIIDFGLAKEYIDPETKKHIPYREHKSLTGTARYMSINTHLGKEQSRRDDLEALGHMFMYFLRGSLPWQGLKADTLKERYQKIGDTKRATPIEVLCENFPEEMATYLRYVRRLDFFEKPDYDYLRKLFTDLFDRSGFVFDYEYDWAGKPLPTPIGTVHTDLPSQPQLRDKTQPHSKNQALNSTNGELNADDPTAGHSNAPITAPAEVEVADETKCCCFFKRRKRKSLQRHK
T6 sequence (P11309 whole entry): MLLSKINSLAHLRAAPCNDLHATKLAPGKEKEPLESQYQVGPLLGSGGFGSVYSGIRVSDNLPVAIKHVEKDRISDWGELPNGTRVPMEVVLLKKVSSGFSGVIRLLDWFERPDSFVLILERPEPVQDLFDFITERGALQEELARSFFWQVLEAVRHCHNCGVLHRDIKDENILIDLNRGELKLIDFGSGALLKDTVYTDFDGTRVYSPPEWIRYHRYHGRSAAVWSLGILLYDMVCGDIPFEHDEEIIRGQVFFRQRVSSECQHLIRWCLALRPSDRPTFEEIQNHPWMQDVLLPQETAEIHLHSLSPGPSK
T7 sequence (Q13882 whole entry): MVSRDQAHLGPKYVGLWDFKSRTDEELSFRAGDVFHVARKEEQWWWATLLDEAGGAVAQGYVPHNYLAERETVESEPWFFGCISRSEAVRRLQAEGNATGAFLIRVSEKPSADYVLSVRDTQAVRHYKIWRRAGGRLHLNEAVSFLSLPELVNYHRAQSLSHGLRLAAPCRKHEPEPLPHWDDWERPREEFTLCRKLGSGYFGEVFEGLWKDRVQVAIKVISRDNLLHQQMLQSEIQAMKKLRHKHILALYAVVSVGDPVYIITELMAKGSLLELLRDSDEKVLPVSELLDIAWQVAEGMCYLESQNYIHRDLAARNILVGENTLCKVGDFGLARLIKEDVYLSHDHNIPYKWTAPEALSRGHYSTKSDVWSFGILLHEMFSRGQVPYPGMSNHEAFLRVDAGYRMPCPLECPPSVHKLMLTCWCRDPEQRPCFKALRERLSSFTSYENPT
T5 sequence (P57059 whole entry): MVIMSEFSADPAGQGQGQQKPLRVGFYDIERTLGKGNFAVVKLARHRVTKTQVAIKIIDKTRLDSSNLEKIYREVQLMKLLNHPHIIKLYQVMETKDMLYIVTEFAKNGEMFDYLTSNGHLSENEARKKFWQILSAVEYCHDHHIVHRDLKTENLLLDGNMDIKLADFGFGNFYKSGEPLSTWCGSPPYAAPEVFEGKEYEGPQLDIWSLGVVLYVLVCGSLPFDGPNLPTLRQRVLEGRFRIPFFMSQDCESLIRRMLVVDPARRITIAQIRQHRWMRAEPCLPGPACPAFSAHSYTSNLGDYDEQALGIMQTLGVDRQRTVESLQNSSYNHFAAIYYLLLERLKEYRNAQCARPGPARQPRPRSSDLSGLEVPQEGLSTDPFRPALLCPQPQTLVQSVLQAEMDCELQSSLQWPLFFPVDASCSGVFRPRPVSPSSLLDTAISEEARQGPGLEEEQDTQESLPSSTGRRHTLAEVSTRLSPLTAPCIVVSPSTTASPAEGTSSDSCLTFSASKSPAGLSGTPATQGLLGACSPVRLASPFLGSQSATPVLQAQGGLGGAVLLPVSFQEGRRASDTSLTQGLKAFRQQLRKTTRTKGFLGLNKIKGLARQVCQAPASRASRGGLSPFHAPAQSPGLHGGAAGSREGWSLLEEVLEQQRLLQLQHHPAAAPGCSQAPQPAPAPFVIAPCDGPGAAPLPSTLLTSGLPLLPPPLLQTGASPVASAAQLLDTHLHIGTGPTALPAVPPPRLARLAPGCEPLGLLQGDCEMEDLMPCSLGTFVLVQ
T1 sequence (P36507 whole entry): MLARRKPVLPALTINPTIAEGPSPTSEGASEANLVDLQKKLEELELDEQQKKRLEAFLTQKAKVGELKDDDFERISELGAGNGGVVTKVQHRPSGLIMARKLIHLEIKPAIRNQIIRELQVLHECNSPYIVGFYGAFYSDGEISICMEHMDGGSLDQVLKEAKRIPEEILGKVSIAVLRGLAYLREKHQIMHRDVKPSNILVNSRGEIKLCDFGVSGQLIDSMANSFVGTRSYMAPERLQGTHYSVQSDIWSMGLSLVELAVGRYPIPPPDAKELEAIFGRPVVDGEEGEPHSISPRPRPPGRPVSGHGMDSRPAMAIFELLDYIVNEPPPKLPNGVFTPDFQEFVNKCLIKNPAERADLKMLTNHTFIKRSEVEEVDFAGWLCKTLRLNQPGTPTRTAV
T3 sequence (Q6P5Z2 whole entry): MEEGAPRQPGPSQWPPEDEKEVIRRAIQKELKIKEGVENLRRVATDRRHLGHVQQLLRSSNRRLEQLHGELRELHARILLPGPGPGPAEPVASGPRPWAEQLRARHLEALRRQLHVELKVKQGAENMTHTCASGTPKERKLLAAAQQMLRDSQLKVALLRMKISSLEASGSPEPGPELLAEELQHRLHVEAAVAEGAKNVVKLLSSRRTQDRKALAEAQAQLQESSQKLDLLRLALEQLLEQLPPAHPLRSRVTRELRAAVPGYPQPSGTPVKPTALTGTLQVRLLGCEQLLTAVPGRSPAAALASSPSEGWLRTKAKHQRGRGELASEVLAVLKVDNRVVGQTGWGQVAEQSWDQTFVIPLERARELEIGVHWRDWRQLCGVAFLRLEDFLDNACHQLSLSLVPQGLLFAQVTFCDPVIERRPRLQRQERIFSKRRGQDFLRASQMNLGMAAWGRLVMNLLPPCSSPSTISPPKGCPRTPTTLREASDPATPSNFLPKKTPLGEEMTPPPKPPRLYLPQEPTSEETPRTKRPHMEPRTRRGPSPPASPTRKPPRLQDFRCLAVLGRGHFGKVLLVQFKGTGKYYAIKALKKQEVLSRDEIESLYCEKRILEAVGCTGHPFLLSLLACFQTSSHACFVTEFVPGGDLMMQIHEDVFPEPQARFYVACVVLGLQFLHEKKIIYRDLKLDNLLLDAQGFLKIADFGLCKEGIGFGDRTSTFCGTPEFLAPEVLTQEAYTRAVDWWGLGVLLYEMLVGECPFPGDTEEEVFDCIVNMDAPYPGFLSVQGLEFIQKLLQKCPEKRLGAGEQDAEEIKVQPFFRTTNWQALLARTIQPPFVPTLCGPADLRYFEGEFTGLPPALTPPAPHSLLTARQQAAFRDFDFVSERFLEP

CNC(=O)c1ccc2c(c1)C(=O)c1ccc(Nc3ccc(F)c(NC(=O)C4CC4)c3)cc1CC2 [Compound 2015]
remaining activity at 0.2 µM (340 wild-type kinases [1]; 0.2 µM 2015, read-out: MEK2 residual activity): 103%
remaining activity at 1 µM (340 wild-type kinases [1]; 1 µM 2015, read-out: MEK2 residual activity): 69.7%
remaining activity at 0.2 µM (340 wild-type kinases [1]; MEK2, 0.2 µM, read-out: residual activity): 103%
remaining activity at 1 µM (340 wild-type kinases [1]; MEK2, 1 µM, read-out: residual activity): 69.7%
remaining activity at 0.2 µM (340 wild-type kinases [2]; 0.2 µM 2015, read-out: TTBK1 residual activity): 88.5%
remaining activity at 1 µM (340 wild-type kinases [2]; 1 µM 2015, read-out: TTBK1 residual activity): 93.4%
remaining activity at 0.2 µM (340 wild-type kinases [2]; TTBK1, 0.2 µM, read-out: residual activity): 88.5%
remaining activity at 1 µM (340 wild-type kinases [2]; TTBK1, 1 µM, read-out: residual activity): 93.4%
remaining activity at 0.2 µM (340 wild-type kinases [3]; 0.2 µM 2015, read-out: PKN3 residual activity): 84.5%
remaining activity at 1 µM (340 wild-type kinases [3]; 1 µM 2015, read-out: PKN3 residual activity): 95.6%
remaining activity at 0.2 µM (340 wild-type kinases [3]; PKN3, 0.2 µM, read-out: residual activity): 84.5%
remaining activity at 1 µM (340 wild-type kinases [3]; PKN3, 1 µM, read-out: residual activity): 95.6%
remaining activity at 0.2 µM (340 wild-type kinases [4]; 0.2 µM 2015, read-out: CAMK2G residual activity): 99%
remaining activity at 1 µM (340 wild-type kinases [4]; 1 µM 2015, read-out: CAMK2G residual activity): 90.5%
remaining activity at 0.2 µM (340 wild-type kinases [4]; CAMK2G, 0.2 µM, read-out: residual activity): 99%
remaining activity at 1 µM (340 wild-type kinases [4]; CAMK2G, 1 µM, read-out: residual activity): 90.5%
remaining activity at 0.2 µM (340 wild-type kinases [5]; 0.2 µM 2015, read-out: SIK1 residual activity): 90.9%
remaining activity at 1 µM (340 wild-type kinases [5]; 1 µM 2015, read-out: SIK1 residual activity): 85.5%
remaining activity at 0.2 µM (340 wild-type kinases [5]; SIK1, 0.2 µM, read-out: residual activity): 90.9%
remaining activity at 1 µM (340 wild-type kinases [5]; SIK1, 1 µM, read-out: residual activity): 85.5%
remaining activity at 0.2 µM (340 wild-type kinases [6]; 0.2 µM 2015, read-out: PIM1 residual activity): 88.3%
remaining activity at 1 µM (340 wild-type kinases [6]; 1 µM 2015, read-out: PIM1 residual activity): 91%
remaining activity at 0.2 µM (340 wild-type kinases [6]; PIM1, 0.2 µM, read-out: residual activity): 88.3%
remaining activity at 1 µM (340 wild-type kinases [6]; PIM1, 1 µM, read-out: residual activity): 91%
remaining activity at 0.2 µM (340 wild-type kinases [7]; 0.2 µM 2015, read-out: BRK residual activity): 100%
remaining activity at 1 µM (340 wild-type kinases [7]; 1 µM 2015, read-out: BRK residual activity): 108%
remaining activity at 0.2 µM (340 wild-type kinases [7]; BRK, 0.2 µM, read-out: residual activity): 100%
remaining activity at 1 µM (340 wild-type kinases [7]; BRK, 1 µM, read-out: residual activity): 108%
remaining activity at 0.2 µM (340 wild-type kinases [8]; 0.2 µM 2015, read-out: CK1gamma2 residual activity): 111%
remaining activity at 1 µM (340 wild-type kinases [8]; 1 µM 2015, read-out: CK1gamma2 residual activity): 113%
remaining activity at 0.2 µM (340 wild-type kinases [8]; CK1gamma2, 0.2 µM, read-out: residual activity): 111%
remaining activity at 1 µM (340 wild-type kinases [8]; CK1gamma2, 1 µM, read-out: residual activity): 113%
remaining activity at 0.2 µM (340 wild-type kinases [9]; 0.2 µM 2015, read-out: SGK1 residual activity): 95.9%
remaining activity at 1 µM (340 wild-type kinases [9]; 1 µM 2015, read-out: SGK1 residual activity): 91.4%
remaining activity at 0.2 µM (340 wild-type kinases [9]; SGK1, 0.2 µM, read-out: residual activity): 95.8%
remaining activity at 1 µM (340 wild-type kinases [9]; SGK1, 1 µM, read-out: residual activity): 91.4%
remaining activity at 0.2 µM (340 wild-type kinases [10]; 0.2 µM 2015, read-out: MYLK3 residual activity): 106%
remaining activity at 1 µM (340 wild-type kinases [10]; 1 µM 2015, read-out: MYLK3 residual activity): 93.5%
remaining activity at 0.2 µM (340 wild-type kinases [10]; MYLK3, 0.2 µM, read-out: residual activity): 106%
remaining activity at 1 µM (340 wild-type kinases [10]; MYLK3, 1 µM, read-out: residual activity): 93.5%
remaining activity at 0.2 µM (340 wild-type kinases [11]; 0.2 µM 2015, read-out: MAP3K1 residual activity): 104%
remaining activity at 1 µM (340 wild-type kinases [11]; 1 µM 2015, read-out: MAP3K1 residual activity): 102%
remaining activity at 0.2 µM (340 wild-type kinases [11]; MAP3K1, 0.2 µM, read-out: residual activity): 104%
remaining activity at 1 µM (340 wild-type kinases [11]; MAP3K1, 1 µM, read-out: residual activity): 102%
